{"source": "paper PMC10004634", "about": "(PLOS ONE, 2023)", "key": {"BTK": {"target": "BTK (Homo sapiens, UniProt Q06187)", "sequence (Q06187 whole entry)": "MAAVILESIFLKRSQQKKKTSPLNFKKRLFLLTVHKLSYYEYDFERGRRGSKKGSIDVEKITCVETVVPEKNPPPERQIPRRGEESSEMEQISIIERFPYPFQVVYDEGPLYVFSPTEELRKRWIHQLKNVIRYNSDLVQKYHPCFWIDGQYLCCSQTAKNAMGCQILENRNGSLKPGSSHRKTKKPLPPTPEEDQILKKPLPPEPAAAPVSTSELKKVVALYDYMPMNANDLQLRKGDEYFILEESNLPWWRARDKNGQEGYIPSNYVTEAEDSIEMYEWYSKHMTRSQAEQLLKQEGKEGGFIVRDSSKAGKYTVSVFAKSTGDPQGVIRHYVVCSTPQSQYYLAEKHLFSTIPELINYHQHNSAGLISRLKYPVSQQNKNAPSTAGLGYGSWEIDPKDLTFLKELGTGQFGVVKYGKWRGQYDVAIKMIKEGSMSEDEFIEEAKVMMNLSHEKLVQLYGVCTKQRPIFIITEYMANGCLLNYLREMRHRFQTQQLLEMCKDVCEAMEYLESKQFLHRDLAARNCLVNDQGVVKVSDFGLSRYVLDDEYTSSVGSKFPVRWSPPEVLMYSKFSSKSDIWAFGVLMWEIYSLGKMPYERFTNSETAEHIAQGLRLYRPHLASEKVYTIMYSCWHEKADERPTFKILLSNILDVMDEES", "assay": "KINOMEscan binding assay", "details": "300 nM; read-out: inhibition of kinase binding (KINOMEscan)"}, "TMD8 cells [1]": {"test_system": "TMD8 cells", "assay": "Western blot of BTK downstream signaling (p-PLCγ2, p-ERK1/2, p-AKT, p-IκBα)", "assay_type": "cell-based, human", "description": "(§1) After culturing, cells were harvested and lysed with cell lysis buffer (Cell Signaling Technology, Inc.) containing 1 mM AEBSF (Calbiochem, #101500). As a positive control of BTK autophosphorylation for western blot analysis, TMD8 cells were treated with hydrogen peroxide (H2O2; final concentration: 6 mM) for 10 min, harvested as a control sample, and then lysed with the cell lysis buffer.\n(§2) Each mixture of cells and cell lysis buffer was incubated on ice for 5 min, then centrifuged at 13400 × g and 4°C for 10 min. Total lysates were loaded on 4%–12% SDS-PAGE (Bio-Rad) and transferred to a polyvinylidene difluoride (PVDF) membrane (Immobilon-P Transfer Membrane, Millipore Corporation). The blot was incubated in Tris-buffered saline with Tween 20 (TBS-T, Cell Signaling Technology, Inc.) containing 2 w/v% ECL Advance Blocking Agent (GE Healthcare Life Sciences, b) for 1 h at room temperature. The blocked PVDF membranes were immersed in TBS-T and washed three times with shaking at room temperature for 10 min. The membrane was incubated with primary antibody in TBS-T containing 2 w/v% ECL Advance Blocking Agent with gentle agitation overnight at 5°C in a cold storage room or for 1 h at room temperature. Rabbit monoclonal anti- phosphorylated BTK (Tyr-223) antibody (p-BTK; Novus Biologicals, #NB100-79907), rabbit monoclonal BTK antibody (Cell Signaling Technology, Inc., #3533), rabbit polyclonal phosphorylated AKT (Ser-473) antibody (p-AKT; Cell Signaling Technology, Inc., #9271), rabbit monoclonal AKT (pan) (C67E7) antibody (Cell Signaling Technology, Inc., #4691), rabbit polyclonal phosphorylated p44/42 MAPK (ERK1/2) (Thr-202/Tyr-204) antibody (p-ERK1/2; Cell Signaling Technology, Inc., #9101), rabbit monoclonal p44/42 MAPK (ERK1/2) (137F5) antibody (Cell Signaling Technology, Inc., #4695), rabbit monoclonal phosphorylated PLCγ2 (Tyr-759) (E9E9Y) antibody (p-PLCγ2; Cell Signaling Technology, Inc., #50535), rabbit monoclonal PLCγ2 (E5U4T) antibody (Cell Signaling Technology, Inc., #55512), mouse monoclonal phosphorylated IκBα (Ser-32/36) (5A5) antibody (p-IκBα; Cell Signaling Technology, Inc., #9246), rabbit monoclonal IκBα (44D4) antibody (Cell Signaling Technology, Inc., #4812), rabbit polyclonal phosphorylated PKCβ (phospho-Thr-641) antibody (p-PKCβ; Signalway Antibody LLC, #11172), rabbit monoclonal IRF4 (D9P5H) antibody (Cell Signaling Technology, Inc., #15106), rabbit monoclonal BCL6 (D65C10) antibody (Cell Signaling Technology, Inc., #5650), rabbit monoclonal c-MYC (D84C12) antibody (Cell Signaling Technology, Inc., #5605), and rabbit monoclonal GAPDH (14C10) antibody (Cell Signaling Technology, Inc., #2118) were used. The PVDF membranes were immersed in TBS-T and washed three times with shaking at room temperature for 10 min, then incubated with secondary antibody with shaking for 1 h at room temperature. The secondary antibody used was anti-rabbit-IgG horseradish peroxidase (HRP)-linked antibody (Cell Signaling Technology, #7074) or goat anti-rabbit immunoglobulins/HRP (Dako, P0448). The PVDF membranes were washed three times with shaking at room temperature for 10 min and were treated with ECL^TM Advance Western Blotting Detection Kit (GE Healthcare Life Sciences, #RPN2135) for chemiluminescent detection according to the manufacturer’s instruction. Lumino-image analyzer (LAS-1000 Plus system, Fuji Photo Film Co., Ltd.) and Image Reader LAS-1000 Lite version 1.3 (Fuji Photo Film Co., Ltd.) were used to visualize bands. The densitometry analysis described the ratio of phosphorylated to total BTK protein. […] 5.04 (GraphPad Software, Inc.)."}, "U-2932 cells": {"test_system": "U-2932 cells", "assay": "Western blot of BTK downstream signaling (p-PLCγ2, p-ERK1/2, p-AKT, p-IκBα)", "assay_type": "cell-based, human", "description": "as §1, §2"}, "TMD8 cells [2]": {"test_system": "TMD8 cells", "assay": "Western blot of IRF4, BCL6, c-MYC protein expression", "assay_type": "cell-based, human", "details": "24 h, 1 μM", "description": "as §1\nEach mixture of cells and cell lysis buffer was incubated on ice for 5 min, then centrifuged at 13400 × g and 4°C for 10 min. Total lysates were loaded on 4%–12% SDS-PAGE (Bio-Rad) and transferred to a polyvinylidene difluoride (PVDF) membrane (Immobilon-P Transfer Membrane, Millipore Corporation). The blot was incubated in Tris-buffered saline with Tween 20 (TBS-T, Cell Signaling Technology, Inc.) containing 2 w/v% ECL Advance Blocking Agent (GE Healthcare Life Sciences, b) for 1 h at room temperature. The blocked PVDF membranes were immersed in TBS-T and washed three times with shaking at room temperature for 10 min. The membrane was incubated with primary antibody in TBS-T containing 2 w/v% ECL Advance Blocking Agent with gentle agitation overnight at 5°C in a cold storage room or for 1 h at room temperature. […] Lumino-image analyzer (LAS-1000 Plus system, Fuji Photo Film Co., Ltd.) and Image Reader LAS-1000 Lite version 1.3 (Fuji Photo Film Co., Ltd.) were used to visualize bands. […]"}, "TMD8 xenograft tumor": {"test_system": "TMD8 xenograft tumor", "assay": "Gene set enrichment analysis (GSEA) of TMD8 xenograft microarray data", "assay_type": "in vivo, mouse"}, "HUNK": {"target": "T1, HUNK (Homo sapiens, UniProt P57058)", "T1 sequence (P57058 1-714)": "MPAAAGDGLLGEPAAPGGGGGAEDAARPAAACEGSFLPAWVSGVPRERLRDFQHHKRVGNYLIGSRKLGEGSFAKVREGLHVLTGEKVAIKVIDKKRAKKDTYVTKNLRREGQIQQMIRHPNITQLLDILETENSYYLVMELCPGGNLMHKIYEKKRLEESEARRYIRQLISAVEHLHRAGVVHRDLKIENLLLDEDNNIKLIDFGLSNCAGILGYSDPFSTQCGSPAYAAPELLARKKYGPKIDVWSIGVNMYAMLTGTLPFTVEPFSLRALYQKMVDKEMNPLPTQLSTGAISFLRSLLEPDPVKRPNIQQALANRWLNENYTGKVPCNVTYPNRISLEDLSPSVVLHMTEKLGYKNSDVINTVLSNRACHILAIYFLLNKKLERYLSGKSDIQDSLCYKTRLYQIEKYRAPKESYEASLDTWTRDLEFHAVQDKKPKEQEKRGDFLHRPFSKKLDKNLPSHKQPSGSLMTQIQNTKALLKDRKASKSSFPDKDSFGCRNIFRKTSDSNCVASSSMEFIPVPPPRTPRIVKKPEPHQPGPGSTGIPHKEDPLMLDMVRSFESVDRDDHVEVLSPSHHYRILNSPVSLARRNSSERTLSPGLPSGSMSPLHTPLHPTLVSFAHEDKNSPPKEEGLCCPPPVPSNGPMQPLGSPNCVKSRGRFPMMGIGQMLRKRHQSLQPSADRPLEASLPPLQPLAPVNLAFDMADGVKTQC", "assay": "KINOMEscan binding assay", "set-up": "purchased Eurofins DiscoverX (KINOMEscan scanMAX service)", "details": "300 nM; read-out: inhibition of kinase binding (KINOMEscan)"}, "[3]": {"details": "GSEA report for tirabrutinib 10, 10 mg/kg vs vehicle"}, "[4]": {"details": "GSEA report for vehicle, tirabrutinib 10 mg/kg vs vehicle"}}}
{"smiles": "CC#CC(=O)N1CC[C@@H](n2c(=O)n(-c3ccc(Oc4ccccc4)cc3)c3c(N)ncnc32)C1", "note": "[Tirabrutinib]", "values": [{"measurement": "inhibition at 0.3 µM", "setting": "BTK", "value": 97, "unit": "%"}, {"measurement": "p-AKT at Ser-473", "setting": "TMD8 cells [1]; 1 μM", "value": "inhibition"}, {"measurement": "p-IκBα at S32/36", "setting": "TMD8 cells [1]; 1 μM, 4 h", "value": "inhibited"}, {"measurement": "p-ERK", "setting": "TMD8 cells [1]; 1 h, 10-300 nM", "value": "inhibited"}, {"measurement": "phosphorylation of PLCγ2 at Tyr-759", "setting": "TMD8 cells [1]; 1 h, 10-300 nM", "value": "inhibited"}, {"measurement": "AKT signaling (p-AKT Ser-473)", "setting": "U-2932 cells; 1 μM", "value": "did not indicate inhibition"}, {"measurement": "p-IκBα at S32/36", "setting": "U-2932 cells; 1 μM, 4 h", "value": "inhibited"}, {"measurement": "p-ERK", "setting": "U-2932 cells; 1 h, 10-300 nM", "value": "not clear"}, {"measurement": "phosphorylation of PLCγ2 at Tyr-759", "setting": "U-2932 cells; 1 h, 10-300 nM", "value": "inhibited"}, {"measurement": "p-ERK", "setting": "U-2932 cells; 4 h, 10-300 nM", "value": "significant inhibition"}, {"measurement": "BCL6 protein expression", "setting": "TMD8 cells [2]", "value": "not changed"}, {"measurement": "IRF4 protein expression", "setting": "TMD8 cells [2]", "value": "downregulation"}, {"measurement": "MYC protein expression", "setting": "TMD8 cells [2]", "value": "downregulation"}, {"measurement": "IRF4, MYC, and mTORC1 pathway-related genes (GSEA)", "setting": "TMD8 xenograft tumor; 10 mg/kg vs vehicle", "value": "downregulated"}, {"measurement": "NES DESCARTES_FETAL_LUNG_LYMPHOID_CELLS", "setting": "TMD8 xenograft tumor; [3]", "value": 2.406}, {"measurement": "NES DESCARTES_FETAL_STOMACH_LYMPHOID_CELLS", "setting": "TMD8 xenograft tumor; [3]", "value": 2.57}, {"measurement": "NES GOBP_CYTOKINE_PRODUCTION_INVOLVED_IN_INFLAMMATORY_RESPONSE", "setting": "TMD8 xenograft tumor; [3]", "value": 2.462}, {"measurement": "NES MORI_PLASMA_CELL_DN", "setting": "TMD8 xenograft tumor; [3]", "value": 2.456}, {"measurement": "NES REACTOME_GENERATION_OF_SECOND_MESSENGER_MOLECULES", "setting": "TMD8 xenograft tumor; [3]", "value": 2.407}, {"measurement": "NES ELVIDGE_HIF1A_TARGETS_DN", "setting": "TMD8 xenograft tumor; [4]", "value": -2.295}, {"measurement": "NES GSE29614_CTRL_VS_DAY7_TIV_FLU_VACCINE_PBMC_DN", "setting": "TMD8 xenograft tumor; [4]", "value": -2.25}, {"measurement": "NES MENSE_HYPOXIA_UP", "setting": "TMD8 xenograft tumor; [4]", "value": -2.505}, {"measurement": "NES QI_HYPOXIA", "setting": "TMD8 xenograft tumor; [4]", "value": -2.398}, {"measurement": "NES TSANG_PBMC_FLUVIRIN_PANDEMRIX_ADULT_CORR_WITH_CELL_FREQ_CD27HI_CD38HI_CD20_NEG_PLASMABLASTS_AND_CD38PLUS_OF_IGD_CD27PLUS_MEM_B_CELLS_7DY_POSITIVE", "setting": "TMD8 xenograft tumor; [4]", "value": -2.3945}, {"measurement": "inhibition at 0.3 µM", "setting": "HUNK", "value": 89, "unit": "%"}]}
